Assay results as given in a melting point compilation (Tetko et al.; mined from patent text by program, amines drawn as free bases though some values may be those of a salt).

Row | melting point | SMILES
1 | 180 to 183 °C | Cc1ccn2c(C(=O)O)c(C)nc2c1
2 | 112 to 115 °C | O=C(Nc1ccccc1F)c1ccccn1
3 | 176 to 177 °C | CCS(=O)(=O)c1cc(S(N)(=O)=O)sc1S(=O)(=O)CC
4 | 172 to 173 °C | O=C(NCC1(c2ccccc2)CCCCC1)Nc1ccc(Br)cc1
5 | 78 to 82 °C | CCCCN1CCSC1c1nsc2ccc(-n3c(=O)cc(C(F)(F)F)n(C)c3=O)cc12 (configuration not stated)
6 | 83 to 84 °C | C=CCCCCCCCCC(=O)N[C@H]1CCCNC(=O)C1
7 | 267 to 272 °C | CS(=O)c1n[nH]c2ccc(Cl)cc2c1=O (configuration not stated)
8 | 218 to 219 °C | COc1ccc(Cn2c(=O)c3c(c4ccccc42)OC(C)(C)[C@@H](O)[C@@H]3NC(=O)CCCCl)cc1 (relative stereo)
9 | 174 to 185 °C | COC(C)c1nc(C(C)(C)O)c(C(=O)O)n1Cc1ccc(-c2ccccc2-c2nnn[nH]2)cc1 (configuration not stated)
10 | 134 to 135 °C | O=C(CCc1ccccc1)N[C@H](Cc1ccc(C(F)(F)F)cc1)[C@@H](O)c1cccc(Oc2ccccc2)c1 (racemic)
11 | 166 to 167 °C | Cc1nc(-c2ccccc2)nc(-c2ccncc2)c1NC(=O)OC(C)(C)C
12 | 205 to 206 °C | CCc1nc2cc(C)c(Cl)nc2n1-c1ccc(CCNC(=O)NS(=O)(=O)c2ccc(C)cc2)cc1
13 | 142 to 143 °C | C=CCn1cc(Br)cnc1=O
14 | > 250 °C | Cc1nc2ccc(C(=O)O)nc2n1Cc1ccc(-c2ccccc2)cc1
15 | 185 to 187 °C | COC(=O)CCSCC(=O)c1ccc2[nH]c(=O)[nH]c2c1
16 | 124 to 125 °C | CCOc1nn(C)c(C(F)(F)F)c1CS(=O)(=O)C1=NOC(C)(C)C1
17 | 252 to 257 °C | CCc1cc2oc3cc(-c4ccccc4Cl)c4c(c3c2cc1OC)C(=O)NC4=O
18 | 260 to 262 °C | CSc1snc(C(F)(F)F)c1C(=O)O
19 | 155 to 157 °C | COc1cccc2c(Cl)nc(Cl)nc12
20 | 185 to 190 °C | CN1C(=O)CC[C@]2(C)c3ccc(-c4ccc5ncccc5c4)cc3CC[C@@H]12
21 | 194 to 196 °C | CC(CC(=O)Nc1c(Cl)ccc2nc(N3CCNCC3)ccc12)c1ccccc1 (configuration not stated)
22 | 193 to 196 °C | CC(Oc1cccnc1)C(=O)Nc1ccc(C(=O)Nc2ccccc2N)cc1 (configuration not stated)

Row | melting point | SMILES
23 | 195 to 196 °C | COC(=O)c1ccc2[nH]cc(CCCCN3CCN(c4ccccc4OC)CC3)c2c1
24 | 206 °C | CCS(=O)(=O)Nc1cc(-n2ncc(N(C)C)c(Cl)c2=O)c(F)cc1C#N
25 | 115 to 116 °C | C=CCc1cc(C(=O)CC(=O)C(C)(C)C)cc(OC)c1O
26 | 128 °C | O=c1c(O)c(-c2ccccc2)oc2cc(O)ccc12
27 | 208 to 209 °C | O=C(Nc1cccnc1)N1CCN(c2ccnc(-c3cccc(F)c3F)n2)CC1
28 | 194 to 197 °C | Nc1ccc(-c2ccc3nnn(Cc4ccc5ncccc5c4)c3n2)cn1
29 | 140 to 145 °C | C=CCNc1cc(C(=O)OCC)nc2cn[nH]c12
30 | 92 to 94 °C | COc1cc(OC)c(/C=C/C(=O)Nc2ccc(OC)c(N)c2)c(OC)c1
31 | 157 to 159 °C | O=C(OCCOc1ccc2ncnn2n1)C1CN(C(c2ccccc2)c2ccccc2)CCN1 (configuration not stated)
32 | 240 °C | Cc1cc2c(cc1C1=NNC(=O)SC1C)C(C)(C)C(=O)N2 (configuration not stated)
33 | 126 to 128 °C | CCN(C)c1cc(F)cc(C(=O)Nc2ccc(OCCN3CCOCC3)c3ccccc23)c1
34 | 84 to 89 °C | O=[N+]([O-])c1ccccc1NCC(F)(F)F
35 | 214 to 216 °C | CC(=O)N(C)c1cc2c(nc(C)n2C)c2c1CCC(c1ccccc1)O2 (configuration not stated)
36 | 276 °C | COc1c(C)c(C(=O)c2ccc3c(c2)c(=O)n(CC(=O)N(C)C)c(=O)n3C)n2ccccc12
37 | 167 to 168 °C | COc1ccc(CN2CCN(CCCOc3ccc4c(C)cc(=O)[nH]c4c3)CC2)cc1
38 | 178 to 179 °C | COc1cc(NC(NC(C)C(C)(C)C)=C(C#N)S(=O)(=O)c2ccc(Cl)cc2)cc(OC)c1 (configuration not stated)
39 | 205 to 206 °C | CN(C(=O)CN1C(=O)c2ccccc2S1(=O)=O)c1ccccc1
40 | 118 °C | COc1cc(Cl)cnc1OCC#Cc1cccc(OCC#N)n1
41 | 84 °C | Cc1cc(C)nc(NC(=O)NS(=O)(=O)C2CCCCCCCCCCC2Cl)n1 (configuration not stated)
42 | 72 to 73 °C | O=C(NCCOCCO)C12CC3CC(CC(C3)C1)C2
43 | 103 °C | Cc1cc(C)cc(Oc2ccc(Oc3cc(C)cc(C)c3)cc2)c1
44 | 127 to 129 °C | CCCOc1cc(OC)c2c(c1)C(=O)c1cccc(OCCN(CC)CC)c1-2

Row | melting point | SMILES
45 | 164 to 167 °C | CC1(C2CCC3C4CCC5CC(CC(=O)O)CCC5(C)C4CCC32C)OCCO1 (configuration not stated)
46 | 148 to 150 °C | CC(C)n1nc(-c2nc(Sc3ccc(F)cc3)c(N)nc2-c2ccccc2)ccc1=O
47 | 119 °C | Cn1nc(C(F)(F)F)cc1Oc1nc(Oc2cc(C(F)(F)F)nn2C)c(F)c(Oc2cc(C(F)(F)F)nn2C)c1F
48 | 169 to 172 °C | Cc1cc(C(=O)N2Cc3ccc(C(=O)N(C)CC(O)CO)n3Cc3ccccc32)ccc1-c1ccccc1C(F)(F)F (configuration not stated)
49 | 81 to 82 °C | CCN1CCN(c2ccc(CC3=C(C)C(=O)c4ccccc4C3=O)cc2)CC1
50 | 107 to 108 °C | COC(=O)c1cccc(C=NO)c1
51 | 176 to 178 °C | N#Cc1ccccc1-c1ccc(O)cc1
52 | 172 to 175 °C | COC(=O)Nc1nc2ccc(Sc3ccccc3)cn2c1CN(C)C
53 | 166 to 168 °C | COc1cc2c(Cl)c(C#N)cnc2cc1OCC1CCN(C)CC1
54 | 87 °C | CCCCCCCCCCc1cnc(-c2ccc3c(c2)C(=O)C(CCCCCC)C3)nc1 (configuration not stated)
55 | 104 to 106 °C | CC(CCC(=O)Cl)C1CCC2C3CCC4CCCCC4(C)C3CCC12C (configuration not stated)
56 | 103 to 104 °C | CC#Cc1ccc([C@H]2CC[C@H](CCCCC)CC2)nn1
57 | 152 to 153 °C | CC1(C)CC(Oc2nc(Cl)nc(N3C(C)(C)CCCC3(C)C)n2)CC(C)(C)N1O
58 | 165 to 169 °C | Cc1cc(=O)c2ccc(N)cc2s1
59 | 127 to 129 °C | CNC(=O)c1cc2nc(C(F)(F)F)ccc2cc1NC(=O)c1cc(Br)nn1-c1ncccc1Cl
60 | 225 to 227 °C | CON1C=C2N=Nc3cc(-c4ccccc4)cnc3N2C1
61 | 138 to 141 °C | NC(=O)CN1C[C@@H]2CCC[C@@H]2C1=O (relative stereo)
62 | 285 to 287 °C | CC1(N)CN(c2nc3c(cc2F)c(=O)c(C(=O)O)cn3C2CC2)C1
63 | 137 to 138 °C | COc1ccc(Oc2ccc(C#CC(C)N(O)C(N)=O)s2)cc1 (configuration not stated)
64 | 177 to 178 °C | Cc1nc2c(OCc3c(N)cccc3Cl)cccn2c1Br
65 | 113 to 116 °C | CCOC(=O)CSc1nc(N)cc(Cl)n1
66 | 65 to 67 °C | CCCCOc1ccc(S(=O)(=O)N2CC(N(Cc3ccccc3)CC(O)COc3cccc4[nH]c5ccccc5c34)C2)cc1 (configuration not stated)

Row | SMILES | melting point
67 | O=[N+]([O-])c1ncn(COC(CO)CO)n1 | 132 °C
68 | Nc1nc(N)nc(N2CCNCC2)n1 | 262 to 268 °C
69 | CC(CCCc1ccc(F)cc1)c1cc(O)c2c(c1)OC(C)(C)C1=C2CN(CC(=O)NC(N)=O)CC1 (configuration not stated) | 133 to 134 °C
70 | COc1cc2c(cc1Br)C(c1ccccc1Cl)=NC1=C(C)NNC1=N2 | 210 to 211 °C
71 | Brc1cccc2[nH]c(-c3ccccc3)c(CCN3CCCCC3)c12 | > 230 °C
72 | COc1cc(CN2CCNC(CO)C2)cc(OC)c1OC (configuration not stated) | 93 °C
